Test results as given in patent US12655116B2, “Substituted isophthalic acid diamides” (Bayer Aktiengesellschaft, priority 2020, dated 2026).

Tests used:
ABUTH [1] = assay: Pre-emergence herbicidal action against ABUTH; format: in vivo, Abutilon theophrasti
Method in brief: (§1)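 Visual rating at 3 weeks vs untreated pots; 0–100% scale, 100% = plants died. Treatment: aqueous WP/EC spray onto covering soil, 600–800 l/ha, 0.2% wetter, seeds in sandy loam.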

ALOMY [2] = assay: Pre-emergence herbicidal action against ALOMY; format: in vivo, Alopecurus myosuroides
Method in brief: as §1

AMARE [3] = assay: Pre-emergence herbicidal action against AMARE; format: in vivo, Amaranthus retroflexus
Method in brief: as §1

AVEFA = assay: Pre-emergence herbicidal action against AVEFA; format: in vivo, Avena fatua
Method in brief: as §1

ECHCG [4] = assay: Pre-emergence herbicidal action against ECHCG; format: in vivo, Echinochloa crus-galli
Method in brief: as §1

LOLRI = assay: Pre-emergence herbicidal action against LOLRI; format: in vivo, Lolium rigidum; conditions: 80 g/ha
Method in brief: as §1

MATIN [5] = assay: Pre-emergence herbicidal action against MATIN; format: in vivo, Matricaria inodora
Method in brief: as §1

PHBPU [6] = assay: Pre-emergence herbicidal action against PHBPU; format: in vivo, Pharbitis purpurea
Method in brief: as §1

POLCO = assay: Pre-emergence herbicidal action against POLCO; format: in vivo, Polygonum convolvulus; conditions: dosage 80 g/ha
Method in brief: as §1

SETVI [7] = assay: Pre-emergence herbicidal action against SETVI; format: in vivo, Setaria viridis
Method in brief: as §1

VERPE [8] = assay: Pre-emergence herbicidal action against VERPE; format: in vivo, Veronica persica; conditions: dosage 80 g/ha
Method in brief: as §1

VIOTR = assay: Pre-emergence herbicidal action against VIOTR; format: in vivo, Viola tricolor
Method in brief: as §1

DIGSA [9] = assay: Pre-emergence herbicidal action against DIGSA; format: in vivo, Digitaria sanguinalis
Method in brief: as §1

ABUTH [10] = assay: Post-emergence herbicidal action against ABUTH; format: in vivo, Abutilon theophrasti; conditions: visual assessment about 3 weeks after treatment vs untreated controls
Method in brief: (§2)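 Greenhouse pot plants in sandy loam were sprayed at the one-leaf stage, 2 to 3 weeks after sowing, with WP or EC formulations as aqueous suspension or emulsion (600 to 800 l/ha water, 0.2% wetting agent). About 3 weeks later, damage was scored visually against untreated controls as % action (100% = dead, 0% = like control).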

ALOMY [11] = assay: Post-emergence herbicidal action against ALOMY; format: in vivo, Alopecurus myosuroides; conditions: visual assessment about 3 weeks after treatment vs untreated controls
Method in brief: as §2

AMARE [12] = assay: Post-emergence herbicidal action against AMARE; format: in vivo, Amaranthus retroflexus; conditions: 20 g/ha, visual assessment about 3 weeks after treatment, 100% = plants have died, 0% = like control plants
Method in brief: as §2

ECHCG [13] = assay: Post-emergence herbicidal action against ECHCG; format: in vivo, Echinochloa crus-galli
Method in brief: as §2

MATIN [14] = assay: Post-emergence herbicidal action against MATIN; format: in vivo, Matricaria inodora
Method in brief: as §2

PHBPU [15] = assay: Post-emergence herbicidal action against PHBPU; format: in vivo, Pharbitis purpurea
Method in brief: as §2

VERPE [16] = assay: Post-emergence herbicidal action against VERPE; format: in vivo, Veronica persica; conditions: 20 g/ha
Method in brief: as §2

SETVI [17] = assay: Post-emergence herbicidal action against SETVI; format: in vivo, Setaria viridis; conditions: Setaria viridis, 504 h, dosage 20 g/ha
Method in brief: as §2

DIGSA [18] = assay: Post-emergence herbicidal action against DIGSA; format: in vivo, Digitaria sanguinalis; conditions: Digitaria sanguinalis, 504 h, 20 g/ha
Method in brief: as §2

[19] = 80 g/ha, scored visually after 3 weeks vs untreated controls (100% = plants have died, 0% = like control plants)
[20] = 20 g/ha, scored visually after 3 weeks, 100% = plants have died, 0% = like control plants
[21] = Tripleurospermum inodorum, 504 h, dosage 20 g/ha

## CCn1nnnc1NC(=O)c1ccc(C(F)(F)F)c(C(=O)NC2CCC2)c1C [Example 2-42]
ABUTH [1]; [19]
  Pre-emergence action against ABUTH (herbicidal activity): 100%
ABUTH [1]; dosage 20 g/ha, scored visually after 3 weeks vs untreated controls, 100% = plants have died, 0% = like control plants
  Pre-emergence action against ABUTH (herbicidal activity in percent): 100%
ALOMY [2]; [20]
  Pre-emergence action against ALOMY: 80%
ALOMY [2]; 80 g/ha, pre-emergence, scored visually after 3 weeks vs untreated controls (100% = plants have died, 0% = like control plants)
  Pre-emergence action against ALOMY (herbicidal activity): 90%
AMARE [3]; 20 g/ha, scored visually after 3 weeks vs untreated controls, 100% = plants have died, 0% = like control plants
  Pre-emergence action against AMARE in %: 100%
AMARE [3]; [19]
  Pre-emergence action against AMARE in %: 100%
AVEFA; [20]
  Pre-emergence action against AVEFA: 80%
AVEFA; 80 g/ha, pre-emergence
  Pre-emergence action against AVEFA in %: 90%
ECHCG [4]; 20 g/ha
  Pre-emergence action against ECHCG in %: 90%
ECHCG [4]; 80 g/ha
  Pre-emergence action against ECHCG in %: 100%
LOLRI
  Pre-emergence action against LOLRI in %: 80%
MATIN [5]; dosage 20 g/ha
  Pre-emergence action against MATIN in %: 100%
MATIN [5]; dosage 80 g/ha
  Pre-emergence action against MATIN in %: 100%
PHBPU [6]; dosage 20 g/ha
  Pre-emergence action against PHBPU in %: 80%
PHBPU [6]; dosage 80 g/ha
  Pre-emergence action against PHBPU in %: 90%
POLCO
  Pre-emergence action against POLCO in %: 80%
SETVI [7]; dosage 20 g/ha
  Pre-emergence action against SETVI in %: 80%
SETVI [7]; dosage 80 g/ha
  Pre-emergence action against SETVI in %: 100%
VERPE [8]
  Pre-emergence action against VERPE in %: 90%
VIOTR; dosage 20 g/ha
  Pre-emergence action against VIOTR in %: 100%
VIOTR; dosage 80 g/ha
  Pre-emergence action against VIOTR in %: 100%
DIGSA [9]; dosage 20 g/ha
  Pre-emergence action against DIGSA in %: 100%
DIGSA [9]; dosage 80 g/ha
  Pre-emergence action against DIGSA in %: 100%
ABUTH [10]; dosage 5 g/ha
  Post-emergence action against ABUTH in %: 80%
ABUTH [10]; dosage 20 g/ha
  Post-emergence action against ABUTH in %: 90%
ALOMY [11]; dosage 5 g/ha
  Post-emergence action against ALOMY in %: 90%
ALOMY [11]; dosage 20 g/ha
  Post-emergence action against ALOMY in %: 100%
AMARE [12]
  Post-emergence action at 20 g/ha against AMARE in %: 100%
ECHCG [13]; dosage 5 g/ha
  Post-emergence action against ECHCG in %: 90%
ECHCG [13]; dosage 20 g/ha
  Post-emergence action against ECHCG in %: 100%
MATIN [14]; dosage 20 g/ha
  Post-emergence action against MATIN in %: 80%
PHBPU [15]; dosage 5 g/ha
  Post-emergence action against PHBPU in %: 90%
PHBPU [15]; dosage 20 g/ha
  Post-emergence action against PHBPU in %: 90%
VERPE [16]
  Post-emergence action against VERPE in %: 90%

## CCNC(=O)c1c(I)ccc(C(=O)Nc2nnnn2CC)c1Cl [Example 2-196]
ABUTH [1]; Abutilon theophrasti, 504 h, 80 g/ha, scored visually after 3 weeks vs untreated controls (100% = plants have died, 0% = like control plants)
  pest or weed control at 80 g/ha: 100%
ABUTH [1]; Abutilon theophrasti, 504 h, dosage 20 g/ha, scored visually after 3 weeks vs untreated controls, 100% = plants have died, 0% = like control plants, read-out: Pre-emergence action against ABUTH (herbicidal activity in percent)
  pest or weed control at 20 g/ha: 100%
ALOMY [2]; Alopecurus myosuroides, 504 h, 80 g/ha, pre-emergence, scored visually after 3 weeks vs untreated controls (100% = plants have died, 0% = like control plants)
  pest or weed control at 80 g/ha: 100%
ALOMY [2]; Alopecurus myosuroides, pre-emergence, 504 h, 20 g/ha, scored visually after 3 weeks, 100% = plants have died, 0% = like control plants
  pest or weed control at 20 g/ha: 90%
AMARE [3]; Amaranthus retroflexus, 504 h, 20 g/ha, scored visually after 3 weeks vs untreated controls, 100% = plants have died, 0% = like control plants
  pest or weed control at 20 g/ha: 100%
AMARE [3]; Amaranthus retroflexus, 504 h, 80 g/ha, scored visually after 3 weeks vs untreated controls, 100% = plants have died, 0% = like control plants
  pest or weed control at 80 g/ha: 100%
AVEFA; Avena fatua, 504 h, 80 g/ha, pre-emergence
  pest or weed control at 80 g/ha: 100%
AVEFA; Avena fatua, pre-emergence, 504 h, 20 g/ha, scored visually after 3 weeks, 100% = plants have died, 0% = like control plants
  pest or weed control at 20 g/ha: 80%
LOLRI; Lolium rigidum, 504 h
  pest or weed control at 80 g/ha: 100%
MATIN [5]; [21]
  pest or weed control at 20 g/ha: 100%
MATIN [5]; Tripleurospermum inodorum, 504 h, dosage 80 g/ha
  pest or weed control at 80 g/ha: 100%
PHBPU [6]; Ipomoea purpurea, 504 h, dosage 20 g/ha
  pest or weed control at 20 g/ha: 80%
PHBPU [6]; Ipomoea purpurea, 504 h, dosage 80 g/ha
  pest or weed control at 80 g/ha: 90%
POLCO; Fallopia convolvulus, 504 h
  pest or weed control at 80 g/ha: 90%
SETVI [7]; Setaria viridis, 504 h, dosage 20 g/ha
  pest or weed control at 20 g/ha: 90%
SETVI [7]; Setaria viridis, 504 h, dosage 80 g/ha
  pest or weed control at 80 g/ha: 100%
VERPE [8]; Veronica persica, 504 h
  pest or weed control at 80 g/ha: 80%
VIOTR; Viola tricolor, 504 h, dosage 20 g/ha
  pest or weed control at 20 g/ha: 90%
VIOTR; Viola tricolor, 504 h, dosage 80 g/ha
  pest or weed control at 80 g/ha: 100%
DIGSA [9]; Digitaria sanguinalis, 504 h, dosage 20 g/ha
  pest or weed control at 20 g/ha: 90%
DIGSA [9]; Digitaria sanguinalis, 504 h, dosage 80 g/ha
  pest or weed control at 80 g/ha: 100%
ABUTH [10]; Abutilon theophrasti, 504 h, dosage 20 g/ha
  pest or weed control at 20 g/ha: 100%
ALOMY [11]; Alopecurus myosuroides, 504 h, dosage 20 g/ha
  pest or weed control at 20 g/ha: 90%
ECHCG [13]; Echinochloa crus-galli, 504 h, dosage 20 g/ha
  pest or weed control at 20 g/ha: 80%
MATIN [14]; Tripleurospermum inodorum, 504 h, dosage 5 g/ha
  pest or weed control at 5 g/ha: 80%
MATIN [14]; [21]
  pest or weed control at 20 g/ha: 90%
SETVI [17]
  pest or weed control at 20 g/ha: 100%
VERPE [16]; Veronica persica, 504 h
  pest or weed control at 20 g/ha: 80%
DIGSA [18]
  pest or weed control at 20 g/ha: 90%
